The values below are quoted from earlier work in EP2133696A1, “Very low concentrations of troponin I or T for assessing a cardiovascular risk with respect to the administration of anti-inflammatory drugs” (Spanuth, Eberhardt, priority 2008, dated 2009).

Turning to `CS(=O)(=O)c1ccc(C2=C(c3ccccc3)C(=O)OC2)cc1` [Rofecoxib], the “additional cardiovascular incidents (myocardial infarction, stroke)” value (25 mg rofecoxib compared with a placebo, after 18 months of follow-up) is reported as 16 per 1,000 treated patients. The blood pressure levels result (25 mg rofecoxib versus placebo, early post-observation phase) is given as “higher blood pressure levels”. In addition, the “rise in the rate of serious thromboembolic incidents” value (APPROVE study, led to premature discontinuation, patients without any recognisable cardiovascular risk) is 3.9 times.
